Experimental data reported in PubChem BioAssay AID2060903 (Molecular Pharmacology Branch, DTP, NCI, 2025).

System: 377384-186-R-J1-PDC complex spheroid viability
Assay: Anticancer human tumor 377384-186-R-J1-PDC patient-derived pancreatic carcinoma cell line growth inhibition [RAS]
Details: for IC50: curve of first compound; for viability, T/C: stronger effect = lower value
Method in brief: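 Agents were tested in combination matrices in half-log decrements from a top concentration at or near clinical Cmax (10 microM if undetermined). Targets were multi-cell spheroids of tumour lines plus HUVEC and MSC stromal cells.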

[1] = second compound 0.000949 µM, first compound 0.0316 µM
[2] = second compound 0.000949 µM, first compound 0.1 µM
[3] = second compound 0.000949 µM, first compound 0.316 µM
[4] = second compound 0.000949 µM, first compound 1 µM
[5] = second compound 0.000949 µM, first compound 3.16 µM
[6] = second compound 0.000949 µM, first compound 10 µM
[7] = second compound 0.003 µM, first compound 0.0316 µM
[8] = second compound 0.003 µM, first compound 0.1 µM
[9] = second compound 0.003 µM, first compound 0.316 µM
[10] = second compound 0.003 µM, first compound 1 µM
[11] = second compound 0.003 µM, first compound 3.16 µM
[12] = second compound 0.003 µM, first compound 10 µM
[13] = second compound 0.00949 µM, first compound 0.0316 µM
[14] = second compound 0.00949 µM, first compound 0.1 µM
[15] = second compound 0.00949 µM, first compound 0.316 µM
[16] = second compound 0.00949 µM, first compound 1 µM
[17] = second compound 0.00949 µM, first compound 3.16 µM
[18] = second compound 0.00949 µM, first compound 10 µM
[19] = second compound 0.03 µM, first compound 0.0316 µM
[20] = second compound 0.03 µM, first compound 0.1 µM
[21] = second compound 0.03 µM, first compound 0.316 µM
[22] = second compound 0.03 µM, first compound 1 µM
[23] = second compound 0.03 µM, first compound 3.16 µM
[24] = second compound 0.03 µM, first compound 10 µM
[25] = second compound 0.0949 µM, first compound 0.0316 µM
[26] = second compound 0.0949 µM, first compound 0.1 µM
[27] = second compound 0.0949 µM, first compound 0.316 µM
[28] = second compound 0.0949 µM, first compound 1 µM
[29] = second compound 0.0949 µM, first compound 3.16 µM
[30] = second compound 0.0949 µM, first compound 10 µM
[31] = second compound 0.3 µM, first compound 0.0316 µM
[32] = second compound 0.3 µM, first compound 0.1 µM
[33] = second compound 0.3 µM, first compound 0.316 µM
[34] = second compound 0.3 µM, first compound 1 µM
[35] = second compound 0.3 µM, first compound 3.16 µM
[36] = second compound 0.3 µM, first compound 10 µM
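Further: spheroids exposed to compounds for seven days before readout.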

CC1(O)CCCC1n1c(=O)c(C(F)F)cc2cnc(NC3CCN(S(C)(=O)=O)CC3)nc21 (centres undefined) + CCn1c(-c2cc(N3CCN(C)CC3)cnc2C(C)OC)c2c3cc(ccc31)-c1csc(n1)CC(NC(=O)C1CC1C)C(=O)N1CCCC(N1)C(=O)OCC(C)(C)C2 was tested, and the IC50 (second compound 0.000949 µM) was less than 0.0316 µM, the IC50 (second compound 0.003 µM) was less than 0.0316 µM and the IC50 (second compound 0.00949 µM) was less than 0.0316 µM. For the same compound, the IC50 (second compound 0.03 µM) was less than 0.0316 µM, the IC50 (second compound 0.0949 µM) was less than 0.0316 µM and the IC50 (second compound 0.3 µM) was less than 0.0316 µM. It also gave a viability, T/C [1] of 46.6%, a viability, T/C [2] of 24.9% and a viability, T/C [3] of 16.1%. The viability, T/C [4] was 14.2%, the viability, T/C [5] was 18.5% and the viability, T/C [6] was 4.43%. The viability, T/C [7] was 20.3%, the viability, T/C [8] was 10.9% and the viability, T/C [9] was 9.42%. It also gave a viability, T/C [10] of 11.9%, a viability, T/C [11] of 13.4% and a viability, T/C [12] of 2.79%. The viability, T/C [13] was 4.59%, the viability, T/C [14] was 4.26% and the viability, T/C [15] was 4.8%. The viability, T/C [16] was 4.95%, the viability, T/C [17] was 6.03% and the viability, T/C [18] was 2.54%. For the same compound, the viability, T/C [19] was 2.77%, the viability, T/C [20] was 2.5% and the viability, T/C [21] was 3.09%. It also gave a viability, T/C [22] of 3.54%, a viability, T/C [23] of 3.12% and a viability, T/C [24] of 2%. For the same compound, the viability, T/C [25] was 1.91%, the viability, T/C [26] was 2.25% and the viability, T/C [27] was 2.46%. For the same compound, the viability, T/C [28] was 2.54%, the viability, T/C [29] was 1.98% and the viability, T/C [30] was 2.3%. The viability, T/C [31] was 2%, the viability, T/C [32] was 2.25% and the viability, T/C [33] was 2.49%. For the same compound, the viability, T/C [34] was 2.5%, the viability, T/C [35] was 1.75% and the viability, T/C [36] was 1.85%.

Work on CCC(CC)c1cc(NC2CCC(N)C2)n2nccc2n1 (centres undefined) + CCn1c(-c2cc(N3CCN(C)CC3)cnc2C(C)OC)c2c3cc(ccc31)-c1csc(n1)CC(NC(=O)C1CC1C)C(=O)N1CCCC(N1)C(=O)OCC(C)(C)C2 yielded an IC50 (second compound 0.000949 µM) of less than 0.0316 µM, an IC50 (second compound 0.003 µM) of less than 0.0316 µM and an IC50 (second compound 0.00949 µM) of less than 0.0316 µM. The IC50 (second compound 0.03 µM) was less than 0.0316 µM, the IC50 (second compound 0.0949 µM) was less than 0.0316 µM and the IC50 (second compound 0.3 µM) was less than 0.0316 µM. For the same compound, the viability, T/C [1] was 48.2%, the viability, T/C [2] was 55% and the viability, T/C [3] was 46.9%. The viability, T/C [4] was 32.9%, the viability, T/C [5] was 0.81% and the viability, T/C [6] was 2.3%. The viability, T/C [7] was 21.7%, the viability, T/C [8] was 16.6% and the viability, T/C [9] was 20.9%. For the same compound, the viability, T/C [10] was 10.7%, the viability, T/C [11] was 0.83% and the viability, T/C [12] was 2.38%. For the same compound, the viability, T/C [13] was 4.86%, the viability, T/C [14] was 4.6% and the viability, T/C [15] was 5.64%. It also gave a viability, T/C [16] of 3.71%, a viability, T/C [17] of 0.61% and a viability, T/C [18] of 3.05%. The viability, T/C [19] was 2.61%, the viability, T/C [20] was 2.47% and the viability, T/C [21] was 2.47%. For the same compound, the viability, T/C [22] was 2.01%, the viability, T/C [23] was 0.73% and the viability, T/C [24] was 1.89%. For the same compound, the viability, T/C [25] was 1.88%, the viability, T/C [26] was 1.8% and the viability, T/C [27] was 1.76%. It also gave a viability, T/C [28] of 2.22%, a viability, T/C [29] of 0.82% and a viability, T/C [30] of 2.4%. For the same compound, the viability, T/C [31] was 2.16%, the viability, T/C [32] was 1.88% and the viability, T/C [33] was 1.75%. It also gave a viability, T/C [34] of 1.54%, a viability, T/C [35] of 0.54% and a viability, T/C [36] of 1.98%.
